Data on one molecule can be found in patent US20240262817A1, “QUINAZOLINE DERIVATIVES TARGETING R(CCUG) REPEATS IN MYOTONIC DYSTROPHY TYPE 2” (University of Florida Research Foundation, Incorporated, priority 2021, published 2024).

Structures are written as SMILES. “Also recorded” adds a separate entry of the source.

Data set [1] deals with IR exon 11 alternative splicing in DM2 patient-derived fibroblasts. The experiment in a line: Rescue of IR exon 11 splicing via RT-PCR in DM2 fibroblasts. Format: cell-based. On the procedure: (§1) Cell lines and cell culture: Compounds were tested in two cell lines: (i) DM2 patient-derived fibroblasts (generous gift from University of Florida, Center for NeuroGenetics) and (ii) fibroblasts from a healthy donor (wild-type; WT GM07492; Coriell Institute). Cells were maintained at 37° ° C. with 5% CO2. DM2 fibroblasts were cultured in DMEM/high glucose (HyClone) supplemented with 20% FBS (Sigma) and 1% Antibiotic-Antimycotic solution (Corning). Wild-type fibroblasts were cultured in MEM (Corning) supplemented with 10% FBS, 1% Glutagro (Corning), and 1% Antibiotic-Antimycotic solution.
(§2) Evaluation of pre-mRNA splicing via RT-PCR: Pre-mRNA splicing was analyzed as previously described.^10 Briefly, cells were grown in 6-well plates and treated with the desired compound in growth medium at ˜40% confluency. After 48 h, the cells were lysed, and total RNA was harvested using a Zymo Quick RNA Miniprep Kit. Approximately 1 μg of total RNA was reverse transcribed using a qScript cDNA synthesis kit (20 μL of total reaction volume, Quanta BioSciences); 2 μL of the RT reaction was used for PCR using GoTaq DNA polymerase (Promega). RT-PCR products were observed after 35 cycles of 95° C. for 30 s, 58° C. for 30s, 72 °C for 1 min, and a final extension at 72° C. for 5 min. Products were separated on a 2% agarose gel (110 V for 1 h in 13TBE buffer), visualized by staining with ethidium bromide, and imaged using a Typhoon 9410 variable mode imager. Gels were quantified using ImageJ. Percent rescue was calculated by dividing the difference between treated and untreated DM2 samples by the difference between untreated DM2 and WT samples (Equation 2).

Data set [2] deals with DM2 patient-derived fibroblasts. The experiment in a line: Cell viability by CellTiter-Glo. It counts as cell-based. The procedure: as §1
Evaluation of cell viability: Compound toxicity in DM2 fibroblasts was evaluated using a CellTiter-Glo Kit (Promega) as described in the manufacturer's protocol. Briefly, after 48 h treatment in 96-wells plates, 100 μL of the CellTiter-Glo reagent was added to each well. The plate was then incubated at room temperature for 10 min, and luminescence was measured using BioTek FLX-800 luminescence plate reader (n=6 replicates; 1 independent experiment).
(Cellular ATP, detected with luciferase, serves as a proxy for viable cell number.)

The test system of data set [3] is r(CCUG)12-MBNL1 complex. Put plainly: TR-FRET assay, disruption of pre-formed r(CCUG)12-MBNL1 complex. Format: biochemical. The note with it: in vitro, read-out: IC50 for disrupting an r(CCUG)12-MBNL1 complex. The source says:
Of the 44 hits, 38 contained a similar substituted N2-phenylquinazoline-2,4-diamine core, while the other hits contained benzimidazoles and indazoles (Figure S2). Importantly, these 44 compounds are drug-like as they have similar physicochemical properties to the rest of the library and to known-drugs in Drug Bank (FIG. 2A). On average, the 44 hit compounds have a molecular weight of 327±35 g/mol, a cLogP of 3.2±0.9. TPSA of 76±15 Å, and 2.5±0.9 hydrogen bond donors. The in vitro potencies (IC50s) of the 44 compounds were then measured in the TR-FRET assay, affording seven compounds (1-7) with IC50s <50 μM (highlighted in red in FIGS. 2B & 2C).
In vitro IC50 measurements: IC50 measurements for disruption of r(CCUG)12-MBNL1 complex was completed using a previously reported TR-FRET assay with minor modifications.^23, 24 Briefly, 5′-biotinylated r(CCUG)12 (SEQ ID NO: 15) was folded in 1× Folding Buffer (20 mM HEPES, pH 7.5, 110 mM KCl, and 10 mM NaCl) at 60° C. for 5 min then cooled to room temperature. The buffer was adjusted to 1× Assay Buffer (20 mM HEPES, pH 7.5, 110 mM KCl, 10 mM NaCl, 2 mM MgCl2, 2 mM CaCl2), 5 mM DTT. 0.1% BSA, and 0.5% Tween-20).
Next, MBNL1-His6 was added, and the samples were incubated at room temperature for 15 min. […] The samples were incubated for 30 min at room temperature and added to a white 384-well plate, where TR-FRET was measured on a Molecular Devices SpectraMax M5 plate reader using an excitation wavelength of 345-nm and a 420-nm cutoff. The ratios of fluorescence intensity at 545 and 665 nm were calculated, and ratios in the absence of a compound and in the absence of RNA were used to calculate percent disruption. […]
[formula] • where y is ratio of fluorescence intensities at 545 nm and 665 nm (F545/F665), x is the concentration of a compound, B is F545/F665 value at max FRET effect (solution has RNA and protein but no compound added); A is F545/F665 value at min FRET effect (solution has antibodies but no RNA, protein, or compound); and the IC50 is the concentration of a compound where half of the protein is displaced by a compound.
A general note: Time-resolved FRET reads energy transfer from a long-lived donor to a nearby acceptor.

For data set [4], the system named is IR exon 11 inclusion in wild-type fibroblasts. The experiment in a line: IR exon 11 inclusion via RT-PCR in wild-type fibroblasts. Format: cell-based. On the procedure: as §1
as §2, with “RT-PCR products were observed after 35 cycles of 95° C. for 30 s, 58° C. for 30s, 72 °C for 1 min, and a final extension at 72° C. for 5 min. Products were separated on a 2% agarose gel (110 V for 1 h in 13TBE buffer), visualized by staining with ethidium bromide, and imaged using a Typhoon 9410 variable mode imager.” left out

The subject of data set [5] is CNBP intron 1 in DM2 patient-derived fibroblasts. The experiment in a line: CNBP intron 1 abundance via RT-qPCR in DM2 fibroblasts. Also noted: dose or concentration left out as unconfirmed. Format: cell-based. On the procedure:
as §1
Evaluation of CNBP abundance via RT-qPCR: CNBP abundance was evaluated as previously described.^10 Briefly, cells were grown in 6-well plates and treated with the desired compound in growth medium at 40% confluency. […] Approximately 1 μg of total RNA was reverse transcribed using a qScript cDNA synthesis kit (20 μL total reaction volume, Quanta BioSciences); 2 μL of the reverse transcription (RT) reaction was used for each primer pair (Table S1) for quantitative PCR with SYBR Green Master Mix, performed on a QuantStudio 5, 384-well Block Real-Time PCR System (Applied Biosciences). Relative abundance was determined by normalizing to GAPDH (n=6 replicates per concentration; 2 independent experiments).
On the technique in general: Real-time PCR tracks product formation cycle by cycle.

Consider `Cc1ccc2nc(Nc3ccc4nc(C)sc4c3)nc(NCCCO)c2c1` [Compound 63, 3-((6-methyl-2-((2-methylbenzo[d]thiazol-6-yl)amino)quinazolin-4-yl)amino)propan-1-ol], for which the “rescue of IR exon 11 splicing” value in data set [1] (at 1 μM) is given as approximately 30%. In data set [1] (at 1 μM dose, p=0.026), the “rescue of IR splicing” value came out at 33±5. In data set [1] (at 5 μM), the “improvement of IR splicing” value is on record as “significantly improved IR splicing”. In addition, in data set [2] (DM2 fibroblasts), the “toxicity as stated in legend of FIG. 3C” value is “non-toxic”. Further, in data set [2] (at 5 μM), the “toxicity in DM2 patient-derived fibroblasts” value was “no toxicity”. The IC50 (usually the concentration at which inhibition is half-maximal) in data set [3] stood at 2200 ± 500 nM. Moreover, the “effect on IR exon 11 inclusion” value in data set [4] was “did not affect; also recorded: no effect”. For the same molecule, the “abundance of CNBP intron 1” value in data set [5] is “significantly reduced”.
